Laboratory results: publication PMC6915728 (Nature Communications, 2019)
Like-named read-outs stand apart in the source and are kept apart here.

Experiments:
[1] = test system: E. coli gene overexpression; conditions: cited from earlier work
Source text: Supplement 41467_2019_13618_MOESM1_ESM.docx, table 1: Supplementary Table 1. Collected examples of E. coli gene overexpression from the literature as a confirmation of our chemical-genetic screen results. | column: Overexpression phenotype

[2] = test system: bacterial species in which the gene showed activity; conditions: Salmonella enterica serovar Typhimurium; ref http://aac.asm.org/content/52/8/2734.full.pdf+html; cited from earlier work
bacterial membrane = conditions: literature mining; ref superscript numbers in the cell, listed in Supplementary Data 7 sheet References; cited from earlier work
Source text: Supplement 41467_2019_13618_MOESM10_ESM.xlsx, sheet "AMP details" | column: Pore formation

[3] = test system: AMP-evolved E. coli lines; test: Cross-resistance / collateral sensitivity: relative MIC change of 38 laboratory-evolved AMP-resistant lines vs parental strain; type: cell-based, Escherichia coli; conditions: measured here
Source text: Here, we extended this dataset by measuring susceptibility changes of the same evolved lines to four additional AMPs using identical protocols to represent AMPs from all four clusters (Supplementary Fig. 15a, see also Methods). Overall, the resulting dataset of susceptibility profiles provides a comprehensive map of cross-resistance and collateral sensitivity between AMPs representing various modes of action.
To characterize the cross-resistance of the 38 E. coli lineages we obtained relative MIC changes that are, the MIC values of the evolved lines compared to these of the parental strain, from two data sources. First, we used already measured relative MIC changes from Spohn et al. Supplementary data 4[20]. […] Second, we extended this dataset by measuring the relative MIC changes of the same evolved lines to four additional AMPs using identical protocol. […] In this way, AMPs from each cluster were represented in the dataset.
Supplementary Figure 15. […] Relative change in MIC was determined for each evolved line by comparing its MIC to the ancestral cell line (control). […] CAP18-adaped lines were not included in the analysis because CAP18 is known as a membrane-targeting AMP in the literature. c, Cross-resistance interactions are enriched between membrane-targeting AMPs that are in the same chemical-genetic clusters (i.e. AMP pairs within C1 and within C2 clusters) (Significant difference: ** P = 0.0082 from two-sided Fisher’s exact test, n = 61 and 62 for within cluster and between clusters, respectively). […] Source data are provided as a Source Data file.

Sequence: RRRPRPPYLPRPRPPPFFPPRLPPRIPPGFPPRFPPRFP [PR39, PR-39, cathelicidin, source pig; cluster C4]
- Overexpression phenotype, Literature ([1]; gene ptrB overexpressed, ref 2 (Mattiuzzo et al. 2014)): Resistance^2
- Overexpression phenotype, Literature ([1]; gene sbmA overexpressed, ref 9 (Pranting et al. 2008)): Sensitivity^9
- Gene that modulates bacterial susceptibility to the AMP [2]: sbmA
- Pore formation (whether AMP makes pores in the bacterial membrane) (bacterial membrane): No9
- Relative change in MIC (MIC of the AMP-adpated line / MIC of the ancestral strain) ([3]; AMP-adapted line BAC5_3): 1.32
- Relative change in MIC (MIC of the AMP-adpated line / MIC of the ancestral strain) ([3]; AMP-adapted line BAC5_5): 1.464
- Relative change in MIC (MIC of the AMP-adpated line / MIC of the ancestral strain) ([3]; AMP-adapted line BAC5_7): 1.584
- Relative change in MIC (MIC of the AMP-adpated line / MIC of the ancestral strain) ([3]; AMP-adapted line BAC5_10): 1.57
- Relative change in MIC (MIC of the AMP-adpated line / MIC of the ancestral strain) ([3]; AMP-adapted line CAP18_2): 1
- Relative change in MIC (MIC of the AMP-adpated line / MIC of the ancestral strain) ([3]; AMP-adapted line CAP18_5): 0.915
- Relative change in MIC (MIC of the AMP-adpated line / MIC of the ancestral strain) ([3]; AMP-adapted line CAP18_6): 0.83
- Relative change in MIC (MIC of the AMP-adpated line / MIC of the ancestral strain) ([3]; AMP-adapted line CAP18_8): 1
- Relative change in MIC (MIC of the AMP-adpated line / MIC of the ancestral strain) ([3]; AMP-adapted line CAP18_10): 0.83
- Relative change in MIC (MIC of the AMP-adpated line / MIC of the ancestral strain) ([3]; AMP-adapted line HBD3_3): 1
- Relative change in MIC (MIC of the AMP-adpated line / MIC of the ancestral strain) ([3]; AMP-adapted line HBD3_6): 0.915
- Relative change in MIC (MIC of the AMP-adpated line / MIC of the ancestral strain) ([3]; AMP-adapted line HBD3_8): 1.1
- Relative change in MIC (MIC of the AMP-adpated line / MIC of the ancestral strain) ([3]; AMP-adapted line HBD3_10): 1.1
- Relative change in MIC (MIC of the AMP-adpated line / MIC of the ancestral strain) ([3]; AMP-adapted line LL37_1): 1.1
- Relative change in MIC (MIC of the AMP-adpated line / MIC of the ancestral strain) ([3]; AMP-adapted line LL37_3): 1.1
- Relative change in MIC (MIC of the AMP-adpated line / MIC of the ancestral strain) ([3]; AMP-adapted line LL37_6): 1.1
- Relative change in MIC (MIC of the AMP-adpated line / MIC of the ancestral strain) ([3]; AMP-adapted line LL37_7): 1.2
- Relative change in MIC (MIC of the AMP-adpated line / MIC of the ancestral strain) ([3]; AMP-adapted line LL37_10): 0.915
- Relative change in MIC (MIC of the AMP-adpated line / MIC of the ancestral strain) ([3]; AMP-adapted line PEX_1): 1
- Relative change in MIC (MIC of the AMP-adpated line / MIC of the ancestral strain) ([3]; AMP-adapted line PEX_4): 1
- Relative change in MIC (MIC of the AMP-adpated line / MIC of the ancestral strain) ([3]; AMP-adapted line PEX_5): 0.915
- Relative change in MIC (MIC of the AMP-adpated line / MIC of the ancestral strain) ([3]; AMP-adapted line PEX_6): 1
- Relative change in MIC (MIC of the AMP-adpated line / MIC of the ancestral strain) ([3]; AMP-adapted line PEX_7): 1
- Relative change in MIC (MIC of the AMP-adpated line / MIC of the ancestral strain) ([3]; AMP-adapted line PROA_2): 1
- Relative change in MIC (MIC of the AMP-adpated line / MIC of the ancestral strain) ([3]; AMP-adapted line PROA_3): 0.915
- Relative change in MIC (MIC of the AMP-adpated line / MIC of the ancestral strain) ([3]; AMP-adapted line PROA_7): 1
- Relative change in MIC (MIC of the AMP-adpated line / MIC of the ancestral strain) ([3]; AMP-adapted line PROA_8): 1
- Relative change in MIC (MIC of the AMP-adpated line / MIC of the ancestral strain) ([3]; AMP-adapted line PROA_9): 1
- Relative change in MIC (MIC of the AMP-adpated line / MIC of the ancestral strain) ([3]; AMP-adapted line PXB_2): 1.728
- Relative change in MIC (MIC of the AMP-adpated line / MIC of the ancestral strain) ([3]; AMP-adapted line PXB_5): 1.44
- Relative change in MIC (MIC of the AMP-adpated line / MIC of the ancestral strain) ([3]; AMP-adapted line PXB_6): 1.728
- Relative change in MIC (MIC of the AMP-adpated line / MIC of the ancestral strain) ([3]; AMP-adapted line PXB_8): 1.44
- Relative change in MIC (MIC of the AMP-adpated line / MIC of the ancestral strain) ([3]; AMP-adapted line PXB_10): 1
